Data taken from patent publication US20160361250A1, “ACTIVE INGREDIENTS STIMULATING TYPE 2 AND/OR TYPE 3 HUMAN BETA-DEFENSINS AND COSMETIC OR PHARMACEUTICAL COMPOSITIONS CONTAINING SUCH ACTIVE INGREDIENTS” (BASF Beauty Care Solutions France S.A.S., priority 2002, published 2016).

Legend:
animals = settings: in vivo
human volunteers = settings: in vivo
hBD2 = assay: Quantitative RT-PCR of hBD2 expression, 2nd step (dose-effect); type: cell-based, human
Procedure: (§1) The actives are then tested on 5 concentrations (from 0.001% to max viability) in quadruplicate on normal human keratinocytes as a monolayer on 96-well culture plates, in a specific medium enriched with calcium and free of serum (CaCl2 1.7 mM) (same conditions as in example 1).
(§2) After 16 h, the supernatants are collected and cells are dry frozen at −80° C. after rinsing in PBS.
(§3) Total RNA are extracted using a 96-well extraction kit on silica columns and assayed using a 96-well spectrophotometer at 260 and 280 nm. RNA are diluted to 5 ng/μL.
(§4) Quantitative RT-PCR in 96 wells on actin, hBD2 and hBD3 is initially carried out on 50 ng of RNA, using a one-step kit containing Sybrgreen, in a fluorescence thermocycler with the same primers as previously (0.5 μM). The amplification program is as follows: 50° C., 30 min; 94° C., 15 min; (94° C., 15 s; 60° C., 30 s; 72° C., 30 s)×50 cycles; 90° C., 1 min; 30° C., 1 min; 50° C. to 95° C. (10 s every ° C.); 14° C., infinite.
(§5) A study of the fusion graphs makes it possible to verify the specificity of amplified products. The fluorescence graph as a function of the number of cycles gives the C(T) value corresponding to the number of cycles needed to obtain initiation of the fluorescence signal. The more an mRNA is expressed, the lower the C(T) value. Calculation of Sgene=(½)^C(T) for each RNA takes into consideration the exponential increase in the number of copies during amplification. The Sgene hBD2/Sgene actin and Sgene hBD3/Sgene actin ratios can be compared with those of the untreated control to give the percentage stimulation produced.
(§6) Quantitative RT-PCR makes it possible to obtain a basal value for the defensin expression for untreated controls. The results are therefore expressed as a percentage of the control. IL8, IL1 and MIP3 cytokine levels are given as pg/mL/RNA concentration (in ng/μL).
(§7) In the same way as in example 2, retinoic acid and retinol were tested for their capacity to stimulate hBD2 and/or hBD3.

hBD3 = assay: Quantitative RT-PCR of hBD3 expression, 2nd step (dose-effect); type: cell-based, human
Procedure: as §1, §2, §3, §4, §5, §6, §7

[1] = conc. 0.01%, 16 h, untreated control = 100%

CC1=C(/C=C/C(C)=C/C=C/C(C)=C/CO)C(C)(C)CCC1 [Retinol]
irritation / allergy, primary skin irritation (in words) (animals): not inducing any inflammatory, irritation or intolerance reaction
irritation / allergy, irritant or sensitizing potential (in words) (human volunteers): not inducing any inflammatory, irritation or intolerance reaction
effect on hBD2 (in words) (hBD2; 0.01%): weakly stimulates hBD2
hBD2 expression, percentage of the control (hBD2; [1]): 168%
effect on hBD3 (in words) (hBD3; 0.01%): strongly stimulates hBD3
hBD3 expression, percentage of the control (hBD3; [1]): 17 562%
